# Test system: MV-4-11 cells
# Experiment: Gene expression microarray analysis (Affymetrix PrimeView) and GSEA
# Assay type: cell-based, human
# Set-up: RFU PODN (11730768_x_at) / Fold change /veh PODN (11730768_x_at) / RFU LINC00158 (11744669_a_at) / Fold change /veh LINC00158 (11744669_a_at) / RFU DUSP10 (11751237_a_at) / Fold change /veh DUSP10 (11751237_a_at) / RFU ID3 (11757404_x_at) / Fold change /veh ID3 (11757404_x_at) / RFU PLEKHG5 (11737974_s_at) / Fold change /veh PLEKHG5 (11737974_s_at) / RFU LRRC4B (11730491_at) / Fold change /veh LRRC4B (11730491_at) / RFU GIMAP4 (11747438_a_at) / Fold change /veh GIMAP4 (11747438_a_at) / RFU KRT8 (11758183_x_at) / Fold change /veh KRT8 (11758183_x_at) / RFU CNN1 (11734310_a_at) / Fold change /veh CNN1 (11734310_a_at) / RFU VPS37D (11726825_at) / Fold change /veh VPS37D (11726825_at) / RFU C10orf10 (11716522_x_at) / Fold change /veh C10orf10 (11716522_x_at) / RFU KIR2DL2 /// KIR2DL4 /// KIR2DL5A /// KIR2DL5B /// KIR2DS1 /// KIR2DS2 /// KIR2DS3 /// KIR2DS4 /// KIR3DL3 /// KIR3DL3 /// KIR3DS1 (11738374_at) / Fold change /veh KIR2DL2 /// KIR2DL4 /// KIR2DL5A /// KIR2DL5B /// KIR2DS1 /// KIR2DS2 /// KIR2DS3 /// KIR2DS4 /// KIR3DL3 /// KIR3DL3 /// KIR3DS1 (11738374_at) / RFU C1QL1 (11718748_at) / Fold change /veh C1QL1 (11718748_at) / RFU TMPRSS4 (11747572_a_at) / Fold change /veh TMPRSS4 (11747572_a_at) / RFU HAMP (11756126_x_at) / Fold change /veh HAMP (11756126_x_at) / RFU RNFT2 (11725882_a_at) / Fold change /veh RNFT2 (11725882_a_at) / RFU NR4A2 (11747474_a_at) / Fold change /veh NR4A2 (11747474_a_at) / RFU ABCC12 (11746883_a_at) / Fold change /veh ABCC12 (11746883_a_at) / RFU TMEM136 (11760407_x_at) / Fold change /veh TMEM136 (11760407_x_at) / RFU CLDN22 /// WWC2 (11732394_at) / Fold change /veh CLDN22 /// WWC2 (11732394_at) / RFU HLA-DPB1 (11760878_x_at) / Fold change /veh HLA-DPB1 (11760878_x_at) / RFU SPINT1 (11716480_a_at) / Fold change /veh SPINT1 (11716480_a_at) / RFU GAP43 (11754022_s_at) / Fold change /veh GAP43 (11754022_s_at) / RFU A4GNT (11735810_at) / Fold change /veh A4GNT (11735810_at) / RFU PRB3 (11715151_x_at) / Fold change /veh PRB3 (11715151_x_at) / RFU TUBB4B (11761932_at) / Fold change /veh TUBB4B (11761932_at) / RFU CAPN14 (11732068_a_at) / Fold change /veh CAPN14 (11732068_a_at) / RFU TMCC2 (11721928_a_at) / Fold change /veh TMCC2 (11721928_a_at) / RFU IRGQ (11745062_a_at) / Fold change /veh IRGQ (11745062_a_at) / RFU FAM174B (11720279_a_at) / Fold change /veh FAM174B (11720279_a_at) / RFU TMPRSS4 (11748680_a_at) / Fold change /veh TMPRSS4 (11748680_a_at) / RFU FAM212B (11763350_a_at) / Fold change /veh FAM212B (11763350_a_at) / RFU PLEKHG5 (11743358_a_at) / Fold change /veh PLEKHG5 (11743358_a_at) / RFU ZSCAN30 (11745921_a_at) / Fold change /veh ZSCAN30 (11745921_a_at) / RFU CMKLR1 (11741424_a_at) / Fold change /veh CMKLR1 (11741424_a_at) / RFU LOC101060620 /// MAPK8IP1 (11723275_at) / Fold change /veh LOC101060620 /// MAPK8IP1 (11723275_at) / RFU SPTSSB (11747773_x_at) / Fold change /veh SPTSSB (11747773_x_at) / RFU PRSS12 (11739890_at) / Fold change /veh PRSS12 (11739890_at) / RFU BIN1 (11741810_x_at) / Fold change /veh BIN1 (11741810_x_at) / RFU WNT11 (11732464_a_at) / Fold change /veh WNT11 (11732464_a_at) / RFU C10orf10 (11716521_a_at) / Fold change /veh C10orf10 (11716521_a_at) / RFU C5orf56 (11738089_at) / Fold change /veh C5orf56 (11738089_at) / RFU CYB561 (11721691_x_at) / Fold change /veh CYB561 (11721691_x_at) / RFU ANKRD19P (11752326_a_at) / Fold change /veh ANKRD19P (11752326_a_at) / RFU OR2T12 /// OR2T33 /// OR2T8 (11738714_s_at) / Fold change /veh OR2T12 /// OR2T33 /// OR2T8 (11738714_s_at) / RFU VCAN (11748164_a_at) / Fold change /veh VCAN (11748164_a_at) / RFU JSRP1 (11732532_at) / Fold change /veh JSRP1 (11732532_at) / RFU KRTAP10-11 (11738290_x_at) / Fold change /veh KRTAP10-11 (11738290_x_at) / RFU MYO3A (11730013_a_at) / Fold change /veh MYO3A (11730013_a_at) / RFU EBF3 (11725865_a_at) / Fold change /veh EBF3 (11725865_a_at) / RFU CAMK2N1 (11719241_x_at) / Fold change /veh CAMK2N1 (11719241_x_at) / RFU C5orf56 (11738088_a_at) / Fold change /veh C5orf56 (11738088_a_at) / RFU OLFML3 (11715873_a_at) / Fold change /veh OLFML3 (11715873_a_at) / RFU LOC100653217 /// NTM (11731650_a_at) / Fold change /veh LOC100653217 /// NTM (11731650_a_at) / RFU MAPK11 (11762145_a_at) / Fold change /veh MAPK11 (11762145_a_at) / RFU FIZ1 (11724087_x_at) / Fold change /veh FIZ1 (11724087_x_at) / RFU OASL (11726364_x_at) / Fold change /veh OASL (11726364_x_at) / RFU SOX15 (11748057_x_at) / Fold change /veh SOX15 (11748057_x_at) / RFU CD79A (11719716_a_at) / Fold change /veh CD79A (11719716_a_at) / RFU HIST1H1D (11736915_at) / Fold change /veh HIST1H1D (11736915_at) / RFU CASKIN2 (11723855_a_at) / Fold change /veh CASKIN2 (11723855_a_at) / RFU LOC730098 (11760151_x_at) / Fold change /veh LOC730098 (11760151_x_at) / RFU OR4N2 (11742367_at) / Fold change /veh OR4N2 (11742367_at) / RFU PRRT2 (11749266_a_at) / Fold change /veh PRRT2 (11749266_a_at) / RFU SNX32 (11753110_a_at) / Fold change /veh SNX32 (11753110_a_at) / RFU CDHR5 (11726645_a_at) / Fold change /veh CDHR5 (11726645_a_at) / RFU RCAN1 (11760418_a_at) / Fold change /veh RCAN1 (11760418_a_at) / RFU FAM167A (11723789_a_at) / Fold change /veh FAM167A (11723789_a_at) / RFU FAM26E (11764081_at) / Fold change /veh FAM26E (11764081_at) / RFU ISYNA1 (11749810_s_at) / Fold change /veh ISYNA1 (11749810_s_at) / RFU ACY1 (11761880_at) / Fold change /veh ACY1 (11761880_at) / RFU 11764098_at / Fold change /veh 11764098_at / RFU SAMD14 (11745864_x_at) / Fold change /veh SAMD14 (11745864_x_at) / RFU NPB (11741838_a_at) / Fold change /veh NPB (11741838_a_at) / RFU TMPRSS6 (11731388_a_at) / Fold change /veh TMPRSS6 (11731388_a_at) / RFU KRTAP10-2 (11738614_at) / Fold change /veh KRTAP10-2 (11738614_at) / RFU ARHGAP8 /// PRR5-ARHGAP8 (11727945_x_at) / Fold change /veh ARHGAP8 /// PRR5-ARHGAP8 (11727945_x_at) / RFU KRTAP5-7 /// NADSYN1 (11734609_at) / Fold change /veh KRTAP5-7 /// NADSYN1 (11734609_at) / RFU RASL12 (11751679_a_at) / Fold change /veh RASL12 (11751679_a_at) / RFU CDKN2B (11736163_a_at) / Fold change /veh CDKN2B (11736163_a_at) / RFU PRF1 (11729649_at) / Fold change /veh PRF1 (11729649_at) / RFU, ZNF638 /// ZNF638-IT1 / Fold change vs veh, ZNF638 /// ZNF638-IT1 / RFU, PANK3 / Fold change vs veh, PANK3 / RFU, SH3YL1 / Fold change vs veh, SH3YL1 / RFU, ZEB2 / Fold change vs veh, ZEB2 / RFU, NRIP1 / Fold change vs veh, NRIP1 / RFU, PTTG1IP / Fold change vs veh, PTTG1IP / RFU, CAPN2 / Fold change vs veh, CAPN2 / RFU, MED14 / Fold change vs veh, MED14 / RFU, SNORA58 / Fold change vs veh, SNORA58 / RFU, C1orf63 / Fold change vs veh, C1orf63 / RFU, LRRFIP1 / Fold change vs veh, LRRFIP1 / RFU, NDUFAF7 / Fold change vs veh, NDUFAF7 / RFU, SLC12A2 / Fold change vs veh, SLC12A2 / RFU, IBTK / Fold change vs veh, IBTK / RFU, ESF1 / Fold change vs veh, ESF1 / Fold change vs veh, TMEM50B / RFU, TAOK1 / Fold change vs veh, TAOK1 / RFU, ACBD3 / Fold change vs veh, ACBD3 / RFU, TMA16 / Fold change vs veh, TMA16 / RFU, RWDD3 / Fold change vs veh, RWDD3 / RFU, BCAT1 / Fold change vs veh, BCAT1 / RFU, EDEM3 / Fold change vs veh, EDEM3 / RFU, TMEM33 / Fold change vs veh, TMEM33 / RFU, WDR75 / Fold change vs veh, WDR75 / RFU, AHCTF1 / Fold change vs veh, AHCTF1 / RFU, TFRC / Fold change vs veh, TFRC / RFU, ZDHHC17 / Fold change vs veh, ZDHHC17 / RFU, NOM1 / Fold change vs veh, NOM1 / RFU, ARL8B / Fold change vs veh, ARL8B / RFU, ZBTB11 / Fold change vs veh, ZBTB11 / RFU, TAMM41 / Fold change vs veh, TAMM41 / RFU, KIAA1704 /// LOC100996395 / Fold change vs veh, KIAA1704 /// LOC100996395 / RFU, ING1 / Fold change vs veh, ING1 / RFU, TRMT61B / Fold change vs veh, TRMT61B / RFU, FUBP3 / Fold change vs veh, FUBP3 / RFU, TP53 / Fold change vs veh, TP53 / RFU, TNKS2 / Fold change vs veh, TNKS2 / RFU, ZFP14 / Fold change vs veh, ZFP14 / RFU, ACTR2 / Fold change vs veh, ACTR2 / RFU, PPP3R1 / Fold change vs veh, PPP3R1 / RFU, PIK3R1 / Fold change vs veh, PIK3R1 / RFU, HNRNPA1 / Fold change vs veh, HNRNPA1 / RFU, RNF170 / Fold change vs veh, RNF170 / RFU, ZNF28 / Fold change vs veh, ZNF28 / RFU, RNGTT / Fold change vs veh, RNGTT / RFU, OGT / Fold change vs veh, OGT / RFU, BRD1 / Fold change vs veh, BRD1 / RFU, MARS / Fold change vs veh, MARS / RFU, ZNF655 / Fold change vs veh, ZNF655 / RFU, FAHD1 / Fold change vs veh, FAHD1 / RFU, BDP1 / Fold change vs veh, BDP1 / RFU, LRRCC1 / Fold change vs veh, LRRCC1 / RFU, ARID1A / Fold change vs veh, ARID1A / RFU, ZNF146 / Fold change vs veh, ZNF146 / RFU, ZNF330 / Fold change vs veh, ZNF330 / RFU, GPN3 / Fold change vs veh, GPN3 / RFU, C9orf123 / Fold change vs veh, C9orf123 / RFU, N4BP2L2 / Fold change vs veh, N4BP2L2 / RFU, ARFIP1 / Fold change vs veh, ARFIP1 / RFU, FAM179B / Fold change vs veh, FAM179B / RFU, BCL10 / Fold change vs veh, BCL10 / RFU, UHRF1BP1L / Fold change vs veh, UHRF1BP1L / RFU, BET1 / Fold change vs veh, BET1 / RFU, CNOT2 / Fold change vs veh, CNOT2 / RFU, ZNF268 / Fold change vs veh, ZNF268 / Fold change vs veh, ZNF507 / RFU, DGCR2 / Fold change vs veh, DGCR2 / RFU, WDSUB1 / Fold change vs veh, WDSUB1 / Fold change vs veh, HSP90B1 /// MIR3652 / RFU, ADSS / Fold change vs veh, ADSS / RFU, GK / Fold change vs veh, GK / RFU, ZNF148 / Fold change vs veh, ZNF148 / RFU, TAF9 / Fold change vs veh, TAF9 / RFU, SLC1A5 / Fold change vs veh, SLC1A5 / RFU, SLMO2 / Fold change vs veh, SLMO2 / RFU, ABCC4 / Fold change vs veh, ABCC4 / RFU, LOC101060439 /// RAP1B / Fold change vs veh, LOC101060439 /// RAP1B / RFU, RFX7 / Fold change vs veh, RFX7 / RFU, GTPBP10 / Fold change vs veh, GTPBP10 / RFU, CNEP1R1 / Fold change vs veh, CNEP1R1 / RFU, BIVM-ERCC5 /// ERCC5 / Fold change vs veh, BIVM-ERCC5 /// ERCC5 / RFU, ILF3 / Fold change vs veh, ILF3 / RFU 11762660_at / Fold change /veh 11762660_at / RFU VCAN (11757783_s_at) / Fold change /veh VCAN (11757783_s_at) / RFU DDX43 (11728927_at) / Fold change /veh DDX43 (11728927_at) / RFU KRT8 (11758188_x_at) / Fold change /veh KRT8 (11758188_x_at) / RFU NKD1 (11759106_at) / Fold change /veh NKD1 (11759106_at) / RFU SRD5A1 (11742802_a_at) / Fold change /veh SRD5A1 (11742802_a_at) / RFU TPSAB1 /// TPSB2 (11721975_s_at) / Fold change /veh TPSAB1 /// TPSB2 (11721975_s_at) / RFU GSTM3 (11746129_a_at) / Fold change /veh GSTM3 (11746129_a_at) / RFU IL23R (11737362_x_at) / Fold change /veh IL23R (11737362_x_at) / RFU TMEM51 (11727254_a_at) / Fold change /veh TMEM51 (11727254_a_at) / RFU PIWIL2 (11732686_x_at) / Fold change /veh PIWIL2 (11732686_x_at) / RFU ORM1 (11744905_x_at) / Fold change /veh ORM1 (11744905_x_at) / RFU CCDC152 (11743942_at) / Fold change /veh CCDC152 (11743942_at) / RFU ECM1 (11717891_a_at) / Fold change /veh ECM1 (11717891_a_at) / RFU IL23R (11748794_a_at) / Fold change /veh IL23R (11748794_a_at) / RFU TNFAIP8L3 (11732012_x_at) / Fold change /veh TNFAIP8L3 (11732012_x_at) / RFU MBOAT4 (11741988_at) / Fold change /veh MBOAT4 (11741988_at) / RFU 11764193_at / Fold change /veh 11764193_at / RFU TMEM53 (11763286_at) / Fold change /veh TMEM53 (11763286_at) / RFU MAGEB2 (11727129_at) / Fold change /veh MAGEB2 (11727129_at) / RFU TMEM200A (11744735_a_at) / Fold change /veh TMEM200A (11744735_a_at) / RFU CCDC152 (11751479_a_at) / Fold change /veh CCDC152 (11751479_a_at) / RFU FAM211A (11726209_a_at) / Fold change /veh FAM211A (11726209_a_at) / RFU RGS16 (11746705_a_at) / Fold change /veh RGS16 (11746705_a_at) / RFU VCAN (11755009_s_at) / Fold change /veh VCAN (11755009_s_at) / RFU RHOB (11743442_s_at) / Fold change /veh RHOB (11743442_s_at) / RFU RGS16 (11720943_a_at) / Fold change /veh RGS16 (11720943_a_at) / RFU RGS16 (11720944_at) / Fold change /veh RGS16 (11720944_at) / RFU, VPS4B / Fold change vs veh, VPS4B / RFU, CREB1 / Fold change vs veh, CREB1 / RFU, DNAJC13 / Fold change vs veh, DNAJC13 / RFU, GNAQ / Fold change vs veh, GNAQ / RFU, CDK5R1 / Fold change vs veh, CDK5R1 / RFU, ZRANB3 / Fold change vs veh, ZRANB3 / RFU, CUL4A / Fold change vs veh, CUL4A / RFU, CCNY / Fold change vs veh, CCNY / RFU, UFL1 / Fold change vs veh, UFL1 / RFU, COG3 / Fold change vs veh, COG3 / RFU, DIAPH2 / Fold change vs veh, DIAPH2 / RFU, SKA2 / Fold change vs veh, SKA2 / RFU, AFF3 / Fold change vs veh, AFF3 / RFU, LMF1 / Fold change vs veh, LMF1 / RFU, IPO11 / Fold change vs veh, IPO11 / RFU, DFFB / Fold change vs veh, DFFB / RFU, FOXP1 / Fold change vs veh, FOXP1 / RFU, CARD8 / Fold change vs veh, CARD8 / RFU, STRN3 / Fold change vs veh, STRN3 / RFU, ADK / Fold change vs veh, ADK / RFU, RASSF2 / Fold change vs veh, RASSF2 / RFU, WIPF1 / Fold change vs veh, WIPF1 / RFU, LARP1B / Fold change vs veh, LARP1B / RFU, RASA1 / Fold change vs veh, RASA1 / RFU, RB1 / Fold change vs veh, RB1 / RFU, PPFIA1 / Fold change vs veh, PPFIA1 / RFU, MAT2A / Fold change vs veh, MAT2A / RFU, CCT5 / Fold change vs veh, CCT5 / RFU, WDR92 / Fold change vs veh, WDR92 / RFU, CUX1 / Fold change vs veh, CUX1 / RFU, TTC7A / Fold change vs veh, TTC7A / RFU, TMEM135 / Fold change vs veh, TMEM135 / RFU, DEPTOR / Fold change vs veh, DEPTOR / RFU, CPM / Fold change vs veh, CPM / RFU, DNAJB6 / Fold change vs veh, DNAJB6 / RFU, CACNA2D3 / Fold change vs veh, CACNA2D3 / RFU, DTX4 / Fold change vs veh, DTX4 / RFU, TFCP2 / Fold change vs veh, TFCP2 / RFU, GMCL1 /// GMCL1P1 / Fold change vs veh, GMCL1 /// GMCL1P1 / RFU, AEBP2 / Fold change vs veh, AEBP2 / RFU, SNHG1 /// SNORD22 /// SNORD25 /// SNORD26 /// SNORD27 /// SNORD28 /// SNORD29 /// SNORD31 / Fold change vs veh, SNHG1 /// SNORD22 /// SNORD25 /// SNORD26 /// SNORD27 /// SNORD28 /// SNORD29 /// SNORD31 / Fold change (Aza/veh), C12orf56 (ProbeSet 11735607_a_at) / Fold change (ACY-1035/veh), C12orf56 (ProbeSet 11735607_a_at) / Fold change (Aza/veh), FGFR1OP (ProbeSet 11751329_s_at) / Fold change (ACY-1035/veh), FGFR1OP (ProbeSet 11751329_s_at) / Fold change (Aza/veh), VPS36 (ProbeSet 11739960_a_at) / Fold change (ACY-1035/veh), VPS36 (ProbeSet 11739960_a_at) / RFU SYPL1 (11715823_x_at) / Fold change /veh SYPL1 (11715823_x_at) / RFU IGFBP7 (11715501_s_at) / Fold change /veh IGFBP7 (11715501_s_at) / RFU REEP3 (11722064_at) / Fold change /veh REEP3 (11722064_at) / RFU IGLL1 (11728026_x_at) / Fold change /veh IGLL1 (11728026_x_at): dose or concentration left out as unconfirmed
# Conditions: ProbeSet 11758440_s_at; LIST B
structure (smiles),measurement,value
Nc1ncn([C@@H]2O[C@H](CO)[C@@H](O)[C@H]2O)c(=O)n1 [azacitidine],"Fold change vs veh, RFX7",0.86

# Source: publication PMC5218480 (PLoS ONE, 2017)
